According to BigSolDB 2.1:

Cc1ccc(S(N)(=O)=O)cc1
solubility (mole fraction)
Conditions | 283.15 K | 288.15 K | 293.15 K | 298.15 K | 303.15 K | 308.15 K | 313.15 K | 318.15 K
in acetonitrile | 0.078 | 0.0848 | 0.0955 | 0.106 | 0.118 | 0.13 | 0.143 | 0.159
in ethanol | 0.0344 | 0.0392 | 0.0448 | 0.0524 | 0.0608 | 0.0701 | 0.0801 | 0.0914
in ethyl acetate | 0.0728 | 0.0786 | 0.0859 | 0.0946 | 0.104 | 0.114 | 0.123 | 0.133
in isopropanol | 0.0203 | 0.0232 | 0.0267 | 0.0306 | 0.0347 | 0.0392 | 0.0445 | 0.0509
in methanol | 0.0441 | 0.0505 | 0.0569 | 0.0648 | 0.073 | 0.0827 | 0.0932 | 0.104
in n-butanol | 0.0242 | 0.028 | 0.0316 | 0.0358 | 0.0403 | 0.0452 | 0.0501 | 0.0565
in n-propanol | 0.0272 | 0.0313 | 0.0358 | 0.0415 | 0.047 | 0.0542 | 0.0611 | 0.0689

Cc1ccccc1S(N)(=O)=O
solubility (mole fraction)
Conditions | 283.15 K | 288.15 K | 293.15 K | 298.15 K | 303.15 K | 308.15 K | 313.15 K | 318.15 K
in acetonitrile | 0.0337 | 0.0375 | 0.0423 | 0.0475 | 0.0534 | 0.0597 | 0.0669 | 0.0737
in ethanol | 0.0242 | 0.0266 | 0.0293 | 0.0321 | 0.035 | 0.0384 | 0.042 | 0.0456
in ethyl acetate | 0.0497 | 0.053 | 0.0566 | 0.0604 | 0.0644 | 0.0687 | 0.0729 | 0.0775
in isopropanol | 0.0198 | 0.022 | 0.0246 | 0.0276 | 0.0305 | 0.0337 | 0.0374 | 0.0414
in methanol | 0.0277 | 0.0305 | 0.0341 | 0.0378 | 0.0425 | 0.0473 | 0.0526 | 0.0579
in n-butanol | 0.0209 | 0.0232 | 0.0257 | 0.0286 | 0.0316 | 0.0348 | 0.0382 | 0.0421
in n-propanol | 0.0226 | 0.0249 | 0.0274 | 0.0301 | 0.0331 | 0.0361 | 0.0394 | 0.0427
